What all share (assay): relative viability (nuclei count vs DMSO), 5 days (fraction); higher = more cells survive
Compound in the experiment “Bleomycin + Luminespib”: CC1=C(N=C(N=C1N)[C@H](CC(=O)N)NC[C@@H](C(=O)N)N)C(=O)N[C@@H]([C@H](C2=CN=CN2)OC3C(C(C(C(O3)CO)O)O)OC4C(C(C(C(O4)CO)O)OC(=O)N)O)C(=O)N[C@H](C)[C@H]([C@H](C)C(=O)N[C@@H]([C@@H](C)O)C(=O)NCCC5=NC(=CS5)C6=NC(=CS6)C(=O)NCCC[S+](C)C)O [Bleomycin] + CCNC(=O)c1noc(-c2cc(C(C)C)c(O)cc2O)c1-c1ccc(CN2CCOCC2)cc1 [Luminespib] (partner 0.01 µM)
To be noted: main component drawn. In outline: (§1)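 After 5 days of treatment, lung cancer cells in 1536-well plates were fixed and stained in a single step (final 0.05% Triton X-100, 1% formaldehyde, 1 ug/ml Hoechst) and their nuclei counted on 4× images. Treatment had been applied by pin tool the day after seeding as one drug alone or as a fixed anchor-drug dose with five library-drug doses (not always all listed) in √10 steps. Relative viability is the nuclei count of treated wells divided by that of vehicle wells, and values are medians of duplicate plates.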

Compound in the experiment “Etoposide + Linsitinib”: COc1cc([C@@H]2c3cc4c(cc3[C@@H](O[C@@H]3O[C@@H]5CO[C@@H](C)O[C@H]5[C@H](O)[C@H]3O)[C@H]3COC(=O)[C@H]23)OCO4)cc(OC)c1O [Etoposide] + C[C@]1(O)C[C@@H](c2nc(-c3ccc4ccc(-c5ccccc5)nc4c3)c3c(N)nccn32)C1 [Linsitinib] (partner 1 µM)
In outline: as §1

Compound in the experiment “Bleomycin + Phenformin”: CC1=C(N=C(N=C1N)[C@H](CC(=O)N)NC[C@@H](C(=O)N)N)C(=O)N[C@@H]([C@H](C2=CN=CN2)OC3C(C(C(C(O3)CO)O)O)OC4C(C(C(C(O4)CO)O)OC(=O)N)O)C(=O)N[C@H](C)[C@H]([C@H](C)C(=O)N[C@@H]([C@@H](C)O)C(=O)NCCC5=NC(=CS5)C6=NC(=CS6)C(=O)NCCC[S+](C)C)O [Bleomycin] + N=C(N)NC(=N)NCCc1ccccc1 [Phenformin] (partner 250 µM)
The conditions noted are these: main component drawn. In outline:
as §1

Compound in the experiment “Bleomycin + Decitabine”: CC1=C(N=C(N=C1N)[C@H](CC(=O)N)NC[C@@H](C(=O)N)N)C(=O)N[C@@H]([C@H](C2=CN=CN2)OC3C(C(C(C(O3)CO)O)O)OC4C(C(C(C(O4)CO)O)OC(=O)N)O)C(=O)N[C@H](C)[C@H]([C@H](C)C(=O)N[C@@H]([C@@H](C)O)C(=O)NCCC5=NC(=CS5)C6=NC(=CS6)C(=O)NCCC[S+](C)C)O [Bleomycin] + Nc1ncn([C@H]2C[C@H](O)[C@@H](CO)O2)c(=O)n1 [Decitabine] (partner 2 µM)
To be noted: main component drawn. In outline:
as §1

In the case of RERF-LC-KJ, the relative viability stood at 0.555 with Bleomycin + Luminespib (first compound 0.01 µM); 0.479 with Bleomycin + Luminespib (first compound 0.03162 µM); 0.461 in the experiment with Bleomycin + Luminespib (first compound 0.1 µM); 0.307 in the experiment with Bleomycin + Luminespib (first compound 0.3162 µM); 0.287 with Bleomycin + Luminespib (first compound 1 µM); 0.84 with Etoposide + Linsitinib (first compound 0.01 µM). Moreover, the relative viability in the experiment with Etoposide + Linsitinib (first compound 0.03162 µM) was 0.895; with Etoposide + Linsitinib (first compound 0.1 µM) it was 0.866; with Etoposide + Linsitinib (first compound 0.3162 µM) it was 0.769; with Etoposide + Linsitinib (first compound 1 µM) it was 0.562; in the experiment with Bleomycin + Phenformin (first compound 0.01 µM) it was 0.287; with Bleomycin + Phenformin (first compound 0.03162 µM) it was 0.271. Also, the relative viability with Bleomycin + Phenformin (first compound 0.1 µM) was 0.269; in the experiment with Bleomycin + Phenformin (first compound 0.3162 µM) it was 0.209; with Bleomycin + Phenformin (first compound 1 µM) it was 0.183; with Bleomycin + Decitabine (first compound 0.01 µM), 0.418; in the experiment with Bleomycin + Decitabine (first compound 0.03162 µM), 0.478; in the experiment with Bleomycin + Decitabine (first compound 0.1 µM), 0.336. The relative viability with Bleomycin + Decitabine (first compound 0.3162 µM) was 0.213; in the experiment with Bleomycin + Decitabine (first compound 1 µM), 0.145.
On to EMC-BAC-2, for which the relative viability with Bleomycin + Luminespib (first compound 0.01 µM) is 0.997; with Bleomycin + Luminespib (first compound 0.03162 µM), 0.832; in the experiment with Bleomycin + Luminespib (first compound 0.1 µM), 0.8; with Bleomycin + Luminespib (first compound 0.3162 µM), 0.348; in the experiment with Bleomycin + Luminespib (first compound 1 µM), 0.244; in the experiment with Etoposide + Linsitinib (first compound 0.01 µM), 0.719. In addition, the relative viability in the experiment with Etoposide + Linsitinib (first compound 0.03162 µM) came to 0.803; with Etoposide + Linsitinib (first compound 0.1 µM), 0.58; in the experiment with Etoposide + Linsitinib (first compound 0.3162 µM) it was 0.273; with Etoposide + Linsitinib (first compound 1 µM), 0.186; with Bleomycin + Phenformin (first compound 0.01 µM), 0.46; with Bleomycin + Phenformin (first compound 0.03162 µM), 0.468. Moreover, the relative viability was 0.391 with Bleomycin + Phenformin (first compound 0.1 µM); 0.275 with Bleomycin + Phenformin (first compound 0.3162 µM); 0.217 with Bleomycin + Phenformin (first compound 1 µM); 0.712 with Bleomycin + Decitabine (first compound 0.03162 µM); 0.538 with Bleomycin + Decitabine (first compound 0.1 µM); 0.342 in the experiment with Bleomycin + Decitabine (first compound 0.3162 µM). Besides, the relative viability with Bleomycin + Decitabine (first compound 1 µM) stood at 0.328.
With LK-2, the relative viability is 0.172 with Bleomycin + Luminespib (first compound 0.01 µM); 0.15 in the experiment with Bleomycin + Luminespib (first compound 0.03162 µM); 0.185 in the experiment with Bleomycin + Luminespib (first compound 0.1 µM); 0.161 with Bleomycin + Luminespib (first compound 0.3162 µM); 0.169 with Bleomycin + Luminespib (first compound 1 µM); 0.522 in the experiment with Etoposide + Linsitinib (first compound 0.01 µM). The relative viability worked out at 0.442 in the experiment with Etoposide + Linsitinib (first compound 0.03162 µM); 0.295 with Etoposide + Linsitinib (first compound 0.1 µM); 0.442 with Etoposide + Linsitinib (first compound 0.3162 µM); 0.18 in the experiment with Etoposide + Linsitinib (first compound 1 µM); 0.289 with Bleomycin + Phenformin (first compound 0.01 µM); 0.281 with Bleomycin + Phenformin (first compound 0.03162 µM). The relative viability was 0.304 in the experiment with Bleomycin + Phenformin (first compound 0.1 µM); 0.23 with Bleomycin + Phenformin (first compound 0.3162 µM); 0.16 with Bleomycin + Phenformin (first compound 1 µM); 0.22 with Bleomycin + Decitabine (first compound 0.01 µM); 0.241 with Bleomycin + Decitabine (first compound 0.03162 µM); 0.184 with Bleomycin + Decitabine (first compound 0.1 µM). The relative viability stood at 0.121 in the experiment with Bleomycin + Decitabine (first compound 0.3162 µM) and 0.142 with Bleomycin + Decitabine (first compound 1 µM).
NCI-H2228: the relative viability with Bleomycin + Luminespib (first compound 0.01 µM) came out at 0.149; with Bleomycin + Luminespib (first compound 0.03162 µM), 0.129; with Bleomycin + Luminespib (first compound 0.1 µM), 0.186; in the experiment with Bleomycin + Luminespib (first compound 0.3162 µM) it was 0.128; in the experiment with Bleomycin + Luminespib (first compound 1 µM) it was 0.15; in the experiment with Etoposide + Linsitinib (first compound 0.01 µM), 0.535. The relative viability in the experiment with Etoposide + Linsitinib (first compound 0.03162 µM) worked out at 0.57; with Etoposide + Linsitinib (first compound 0.1 µM) it was 0.728; with Etoposide + Linsitinib (first compound 0.3162 µM), 0.627; with Etoposide + Linsitinib (first compound 1 µM), 0.462; with Bleomycin + Phenformin (first compound 0.01 µM), 0.314; with Bleomycin + Phenformin (first compound 0.03162 µM), 0.312. Further, the relative viability was determined as 0.301 with Bleomycin + Phenformin (first compound 0.1 µM), 0.185 with Bleomycin + Phenformin (first compound 0.3162 µM) and 0.147 with Bleomycin + Phenformin (first compound 1 µM).
For NCI-H322M, the relative viability in the experiment with Bleomycin + Luminespib (first compound 0.01 µM) came out at 0.781; with Bleomycin + Luminespib (first compound 0.03162 µM), 0.783; with Bleomycin + Luminespib (first compound 0.1 µM), 0.709; with Bleomycin + Luminespib (first compound 0.3162 µM), 0.442; in the experiment with Bleomycin + Luminespib (first compound 1 µM) it was 0.42; with Etoposide + Linsitinib (first compound 0.01 µM), 0.902. Further, the relative viability with Etoposide + Linsitinib (first compound 0.03162 µM) was found to be 0.993; with Etoposide + Linsitinib (first compound 0.1 µM), 0.727; in the experiment with Etoposide + Linsitinib (first compound 0.3162 µM), 0.845; with Etoposide + Linsitinib (first compound 1 µM), 0.565; with Bleomycin + Phenformin (first compound 0.01 µM) it was 0.655; in the experiment with Bleomycin + Phenformin (first compound 0.03162 µM), 0.74. The relative viability with Bleomycin + Phenformin (first compound 0.1 µM) amounted to 0.72; with Bleomycin + Phenformin (first compound 0.3162 µM), 0.377; with Bleomycin + Phenformin (first compound 1 µM), 0.353; in the experiment with Bleomycin + Decitabine (first compound 0.01 µM), 0.809; in the experiment with Bleomycin + Decitabine (first compound 0.03162 µM), 0.612; with Bleomycin + Decitabine (first compound 0.1 µM), 0.635. The relative viability with Bleomycin + Decitabine (first compound 0.3162 µM) was 0.659; in the experiment with Bleomycin + Decitabine (first compound 1 µM), 0.48.
As for NCI-H1975, the relative viability is 0.29 with Bleomycin + Luminespib (first compound 0.01 µM); 0.168 with Bleomycin + Luminespib (first compound 0.03162 µM); 0.177 with Bleomycin + Luminespib (first compound 0.1 µM); 0.164 in the experiment with Bleomycin + Luminespib (first compound 0.3162 µM); 0.178 with Bleomycin + Luminespib (first compound 1 µM); 0.973 with Etoposide + Linsitinib (first compound 0.01 µM). In addition, the relative viability with Etoposide + Linsitinib (first compound 0.03162 µM) was found to be 1.07; in the experiment with Etoposide + Linsitinib (first compound 0.1 µM), 0.902; with Etoposide + Linsitinib (first compound 0.3162 µM), 0.67; in the experiment with Etoposide + Linsitinib (first compound 1 µM), 0.345; with Bleomycin + Phenformin (first compound 0.01 µM), 0.322; with Bleomycin + Phenformin (first compound 0.03162 µM), 0.316. The relative viability was 0.253 in the experiment with Bleomycin + Phenformin (first compound 0.1 µM); 0.162 in the experiment with Bleomycin + Phenformin (first compound 0.3162 µM); 0.123 in the experiment with Bleomycin + Phenformin (first compound 1 µM); 0.327 with Bleomycin + Decitabine (first compound 0.01 µM); 0.437 with Bleomycin + Decitabine (first compound 0.03162 µM); 0.291 in the experiment with Bleomycin + Decitabine (first compound 0.1 µM). Also, the relative viability with Bleomycin + Decitabine (first compound 0.3162 µM) was 0.209; with Bleomycin + Decitabine (first compound 1 µM) it was 0.177.
Regarding HCC-78, the relative viability in the experiment with Etoposide + Linsitinib (first compound 0.01 µM) came out at 0.436; with Etoposide + Linsitinib (first compound 0.03162 µM), 0.525; with Etoposide + Linsitinib (first compound 0.1 µM), 0.255; in the experiment with Etoposide + Linsitinib (first compound 0.3162 µM), 0.322; in the experiment with Etoposide + Linsitinib (first compound 1 µM) it was 0.181; with Bleomycin + Phenformin (first compound 0.01 µM) it was 0.573. Further, the relative viability with Bleomycin + Phenformin (first compound 0.03162 µM) came to 0.74; with Bleomycin + Phenformin (first compound 0.1 µM) it was 0.581; with Bleomycin + Phenformin (first compound 0.3162 µM), 0.321; with Bleomycin + Phenformin (first compound 1 µM) it was 0.403; with Bleomycin + Decitabine (first compound 0.01 µM), 0.624; with Bleomycin + Decitabine (first compound 0.03162 µM), 0.702. The figures for the relative viability with Bleomycin + Decitabine (first compound 0.1 µM), with Bleomycin + Decitabine (first compound 0.3162 µM) and in the experiment with Bleomycin + Decitabine (first compound 1 µM) were 0.639, 0.645 and 0.423, respectively.
Regarding NCI-H1299, the relative viability with Etoposide + Linsitinib (first compound 0.01 µM) stood at 0.973; with Etoposide + Linsitinib (first compound 0.03162 µM), 1.03; in the experiment with Etoposide + Linsitinib (first compound 0.1 µM), 1; with Etoposide + Linsitinib (first compound 0.3162 µM), 0.879; in the experiment with Etoposide + Linsitinib (first compound 1 µM), 0.7.
